Reference: ChEMBL document CHEMBL3885861, “Open TG-GATES”

Species on record: Rattus norvegicus
Test: Open TG-GATES - Regimen: Single
Format: toxicity, organism-based, Sprague-Dawley
Parameters: regimen Single, gender Male, age 6 weeks
Conditions: in vivo, po, 50 mg/kg, route gavage, dose level Middle; for APTT / Bas / Eos / Fbg / Hb / Ht / Lym / MCH / MCHC / MCV / Mono / Neu / PT / Plat / RBC / Ret / WBC: tissue Blood; for KIDNEY_L / KIDNEY_R / KIDNEY_TOTAL: tissue Kidney; for LIVER: tissue Liver; for A/G / ALP / ALT / AST / BUN / CRE / Ca / Cl / DBIL / GLC / IP / K / LDH / Na / PL / RALB / TBIL / TC / TG / TP / gamma-GTP: tissue Plasma

S=C=Nc1cccc2ccccc12 [1-NAPHTHYLISOTHIOCYANATE]
TERMINAL_BW (3 h): 223.2 g | APTT (3 h): 18.3 s | Bas (3 h): 0.2% | Eos (3 h): 1% | Fbg (3 h): 237 mg/dL | Hb (3 h): 13.7 g/dL | Ht (3 h): 38.1% | Lym (3 h): 76.6% | MCH (3 h): 21.4 pg | MCHC (3 h): 35.9% | MCV (3 h): 59.7 fL | Mono (3 h): 2.6% | Neu (3 h): 18.8% | PT (3 h): 11.6 s | Plat (3 h): 118.2 x10_4/uL | RBC (3 h): 639.2 x10_4/ul | Ret (3 h): 8% | WBC (3 h): 87.7 x10_2/uL | KIDNEY_L (3 h): 0.9 g | KIDNEY_R (3 h): 1 g | KIDNEY_TOTAL (3 h): 1.9 g | LIVER (3 h): 9.8 g | A/G (3 h): 1.7 | ALP (3 h): 1022.2 IU/L | ALT (3 h): 45 IU/L | AST (3 h): 80.2 IU/L | BUN (3 h): 9.6 mg/dL | CRE (3 h): 0.4 mg/dL | Ca (3 h): 10.8 mg/dL | Cl (3 h): 102.8 meq/L | DBIL (3 h): 0.1 mg/dL | GLC (3 h): 240.6 mg/dL | IP (3 h): 10.1 mg/dL | K (3 h): 3.9 meq/L | LDH (3 h): 179.8 IU/L | Na (3 h): 141.4 meq/L | PL (3 h): 154.2 mg/dL | RALB (3 h): 3.6 g/dL | TBIL (3 h): 0.1 mg/dL | TC (3 h): 85.2 mg/dL | TG (3 h): 77.4 mg/dL | TP (3 h): 5.7 g/dL | gamma-GTP (3 h): 0.8 IU/L | TERMINAL_BW (6 h): 220.8 g | APTT (6 h): 19.2 s | Bas (6 h): 0% | Eos (6 h): 0.4% | Fbg (6 h): 239.8 mg/dL | Hb (6 h): 13.9 g/dL | Ht (6 h): 38.9% | Lym (6 h): 79.2% | MCH (6 h): 21.3 pg | MCHC (6 h): 35.6% | MCV (6 h): 59.8 fL | Mono (6 h): 2.2% | Neu (6 h): 17% | PT (6 h): 12 s | Plat (6 h): 126.8 x10_4/uL | RBC (6 h): 651.4 x10_4/ul | Ret (6 h): 7% | WBC (6 h): 80.1 x10_2/uL | KIDNEY_L (6 h): 1 g | KIDNEY_R (6 h): 1 g | KIDNEY_TOTAL (6 h): 1.9 g | LIVER (6 h): 9.3 g | A/G (6 h): 1.5 | ALP (6 h): 936.2 IU/L | ALT (6 h): 36.6 IU/L | AST (6 h): 72.8 IU/L | BUN (6 h): 8.6 mg/dL | CRE (6 h): 0.4 mg/dL | Ca (6 h): 10.6 mg/dL | Cl (6 h): 101.8 meq/L | DBIL (6 h): 0.2 mg/dL | GLC (6 h): 321.6 mg/dL | IP (6 h): 10.2 mg/dL | K (6 h): 4.2 meq/L | LDH (6 h): 208 IU/L | Na (6 h): 140.2 meq/L | PL (6 h): 153.8 mg/dL | RALB (6 h): 3.5 g/dL | TBIL (6 h): 0.2 mg/dL | TC (6 h): 84.6 mg/dL | TG (6 h): 69.8 mg/dL | TP (6 h): 5.8 g/dL | gamma-GTP (6 h): 1 IU/L | TERMINAL_BW (9 h): 214.5 g | APTT (9 h): 17.9 s | Bas (9 h): 0% | Eos (9 h): 0.6% | Fbg (9 h): 254 mg/dL | Hb (9 h): 13.7 g/dL | Ht (9 h): 38.2% | Lym (9 h): 76.8% | MCH (9 h): 22.3 pg | MCHC (9 h): 35.9% | MCV (9 h): 62 fL | Mono (9 h): 2.2% | Neu (9 h): 19.2% | PT (9 h): 12 s | Plat (9 h): 133.4 x10_4/uL | RBC (9 h): 615.6 x10_4/ul | Ret (9 h): 7.2% | WBC (9 h): 80 x10_2/uL | KIDNEY_L (9 h): 0.9 g | KIDNEY_R (9 h): 0.9 g | KIDNEY_TOTAL (9 h): 1.8 g | LIVER (9 h): 8.8 g | A/G (9 h): 1.6 | ALP (9 h): 826 IU/L | ALT (9 h): 34.2 IU/L | AST (9 h): 60 IU/L | BUN (9 h): 10 mg/dL | CRE (9 h): 0.4 mg/dL | Ca (9 h): 10.7 mg/dL | Cl (9 h): 102 meq/L | DBIL (9 h): 0.2 mg/dL | GLC (9 h): 321.8 mg/dL | IP (9 h): 10 mg/dL | K (9 h): 4.3 meq/L | LDH (9 h): 150.4 IU/L | Na (9 h): 141.2 meq/L | PL (9 h): 147.8 mg/dL | RALB (9 h): 3.5 g/dL | TBIL (9 h): 0.2 mg/dL | TC (9 h): 79.8 mg/dL | TG (9 h): 72 mg/dL | TP (9 h): 5.8 g/dL | gamma-GTP (9 h): 1.2 IU/L | TERMINAL_BW (24 h): 214.8 g | APTT (24 h): 19.7 s | Bas (24 h): 0.6% | Eos (24 h): 0.4% | Fbg (24 h): 357 mg/dL | Hb (24 h): 14.3 g/dL | Ht (24 h): 37.9% | Lym (24 h): 48% | MCH (24 h): 22.4 pg | MCHC (24 h): 37.7% | MCV (24 h): 59.2 fL | Mono (24 h): 4.6% | Neu (24 h): 44.6% | PT (24 h): 12.2 s | Plat (24 h): 131.9 x10_4/uL | RBC (24 h): 639.6 x10_4/ul | Ret (24 h): 6% | WBC (24 h): 118.9 x10_2/uL | KIDNEY_L (24 h): 1 g | KIDNEY_R (24 h): 1 g | KIDNEY_TOTAL (24 h): 2 g | LIVER (24 h): 9.2 g | A/G (24 h): 1.3 | ALP (24 h): 1257.2 IU/L | ALT (24 h): 153.8 IU/L | AST (24 h): 366.6 IU/L | BUN (24 h): 10.4 mg/dL | CRE (24 h): 0.4 mg/dL | Ca (24 h): 10.4 mg/dL | Cl (24 h): 98 meq/L | DBIL (24 h): 0.9 mg/dL | GLC (24 h): 177.6 mg/dL | IP (24 h): 8.6 mg/dL | K (24 h): 3.5 meq/L | LDH (24 h): 617.6 IU/L | Na (24 h): 141.4 meq/L | PL (24 h): 218.2 mg/dL | RALB (24 h): 3.2 g/dL | TBIL (24 h): 1.1 mg/dL | TC (24 h): 107 mg/dL | TG (24 h): 64.8 mg/dL | TP (24 h): 5.7 g/dL | gamma-GTP (24 h): 6.2 IU/L
